Source: patent US7273847B2, “Peptides with antioxidant and antimicrobial properties” (priority 2000, dated 2007)

B1: SP-D: Native surfactant protein D from rat alveolar wash; mouse SP-D was used interchangeably with rat SP-D (protein)
chain: AEMKSLSQRSVPNTCTLVMCSPTENGLPGRDGRDGREGPRGEKGDPGLPGPMGLSGLQGPTGPVGPKGENGSAGEPGPKGERGLSGPPGLPGIPGPAGKEGPSGKQGNIGPQGKPGPKGEAGPKGEVGAPGMQGSTGAKGSTGPKGERGAPGVQGAPGNAGAAGPAGPAGPQGAPGSRGPPGLKGDRGVPGDRGIKGESGLPDSAALRQQMEALKGKLQRLEVAFSHYQKAALFPDGRSVGDKIFRTADSEKPFEDAQEMCKQAGGQLASPRSATENAAIQQLITAHNKAAFLSMTDVGTEGKFTYPTGEPLVYSNWAPGEPNNNGGAENCVEIFTNGQWNDKACGEQRLVICEF

Tests used:
E. coli [1] = assay: CFU count over a six hour incubation; format: cell-based; conditions: at 1 and 2 hrs; confounded by bacterial aggregation
RAW 264.7 macrophages = assay: Protection from t-BOOH induced cell death (Trypan Blue exclusion); format: cell-based, murine; conditions: 40 μM t-BOOH, 24 hrs; for Half maximal concentration for protection from t-BOOH-induced death: Trypan Blue
Experimental: A murine macrophage cell line (RAW 264.7) was adhered to 24-well plates (2×10^4 cells/well) in Ham's F12 media containing 10% FBS overnight at 37° C. in a 10% CO2 atmosphere. After washing, the cells were exposed to 40 μM tert-butyl hydroperoxide (t-BOOH) in serum free Ham's F12 for 24 hrs in the presence of various concentrations of the surfactant proteins. Viability was assessed for exclusion of the vital dye Trypan Blue.
Exposure of cultured mammalian cells to tert-butylhydroperoxide (t-BOOH) promotes a variety of toxic events including depletion of glutathione, mitochondrial dysfunction and peroxidation of membrane lipids, as described in Sestili et al., FEBS Lett. 457(1):139-143 (1999). To determine if SP-A and SP-D protect cells from oxidative stress, RAW 264.7 murine macrophages were exposed to 40 μM t-BOOH for 24 hrs in the presence of SP-A or SP-D at concentrations from 0.01 to 50 μg/ml. Cell death was assessed by staining cells with the vital dye Trypan Blue. As depicted by FIG. 5, RAW 264.7 macrophages were incubated with various concentrations of SP-A or SP-D and 40 μM t-BOOH. Cell viability was assessed by counting the percentage of cells that excluded the vital dye Trypan Blue. Data are mean±S.E.M., n=3 for collectins except 50 μg/ml point where n=2.

[2] = test system: P. aeruginosa (PAO1 mutant); assay: Radial diffusion assay; format: cell-based
E. coli K12 = assay: Radial diffusion growth inhibition in agar; format: cell-based; conditions: radial diffusion, overnight 37° C.
Experimental: (§1) A radial diffusion method was therefore used to examine the effect of the collectins and their individual structural domains on the growth of E. coli that were immobilized in agar (FIGS. 8,9). Wells were bored into plates containing agar impregnated with 2×10^6 E. coli/ml or GBS. Proteins to be tested were introduced into the wells and the plates were incubated overnight at 37° C.

GBS = assay: Radial diffusion growth inhibition in agar; format: cell-based; conditions: radial diffusion (not shown)
Experimental: as §1

E. coli [3] = assay: Light scattering by growing bacteria in broth (O.D. 400 nm); conditions: for Blocking of attenuation of light scattering by J5 LPS vesicles: 300 μg/ml J5 LPS vesicles, 100 μg/ml collectin
E. coli strain (E69) = assay: Growth inhibition (radius of clearing) of E. coli clinical isolate with or without OmpA; format: cell-based; conditions: for Growth inhibition of ΔOmpA bacteria with plasmid driven OmpA expression: OmpA replaced; for Growth inhibition of OmpA deficient (ΔOmpA) E. coli: judged by the radius of clearing around the well
Experimental: SP-A has been reported to bind to the outer membrane protein (OmpA) of Hemophilus influenza, a porin that facilitates the uptake of nutrients from the environment. The hypothesis that binding of collectins to OmpA mediates bacterial growth inhibition by SP-A and SP-D was tested. These experiments were performed using a genetically engineered clinical isolate of E. coli that was rendered OmpA deficient (ΔOmpA) by transposon mutagenesis.

Row | Molecule | Decrease in number of CFUs (E. coli [1]) [%] | Concentration at which protection reached a plateau (RAW 264.7 macrophages) | Half maximal concentration for protection from t-BOOH-induced death (RAW 264.7 macrophages) [µg/mL] | Growth of P. aeruginosa (PAO1 mutant) [2] | Growth of E. coli K12 (E. coli K12) | Growth of GBS (GBS) | Blocking of attenuation of light scattering by J5 LPS vesicles (E. coli [3]) | Growth inhibition of ΔOmpA bacteria with plasmid driven OmpA expression (E. coli strain (E69)) | Growth inhibition of ΔOmpA organism with empty vector control (E. coli strain (E69)) | Growth inhibition of OmpA deficient (ΔOmpA) E. coli (E. coli strain (E69)) | Growth of parental E. coli strain (E69) (E. coli strain (E69)) | Time dependent increase in light scattering (E. coli [3]; 100 μg/ml)
1 | SP-A: Native surfactant protein A isolated from the alveolar wash of silica-pretreated rats | 90 | approximately 1 μg/ml | 0.52 | inhibited the growth | inhibited the growth | not GBS | completely | attenuated growth inhibition | inhibited to the same extent as the ΔOmpA organism | growth inhibition was increased | inhibited the growth | –
2 | B1 | – | approximately 1 μg/ml | 0.56 | – | inhibited the growth | not GBS | partially | attenuated growth inhibition | inhibited to the same extent as the ΔOmpA organism | growth inhibition was increased | inhibited the growth | inhibited
